Measured values from patent publication US6423695B1, “Cytokine related treatments of disease” (Ribapharm, Inc., priority 1998, dated 2002).
Entries after “also recorded” stand apart in the source; their conditions may differ.

Experiments:
Th1 and Th2 responses = assay: Modulation of Th1 and Th2 responses at administered dose; type: in vivo
Description: The effects of 2-β-D-ribofuranosylthiazole-4-carboxamide (Tiazofurin), a synthetic C-nucleoside analogue, on GTP levels supports this view. Tumor cells are characterized by high levels of inosine monophosphate dehydrogenase (IMP DH) activity, and it is known that IMP DH is the rate-limiting enzyme of GTP biosynthesis. Weber, G., IMP Dehydrogenase and GTP as Targets in Human Leukemia Treatment. Adv. Exp. Med. Biol. 309B:287-292 (1991). […] Weber, G., Critical Issues in Chemotherapy with Tiazofurin, Adv. Enzyme Regul. 29:75-95 (1989). Typical initial doses of Tiazofurin are about 4,400 mg/m^2, with consolidation doses of about 1100 to 3300 mg/m^2. […] In one aspect of the present invention it is contemplated that much smaller doses of Tiazofurin, in the range of 1/10th to one-half that set forth above, would be sufficient to specifically suppress either a Th1 response or a Th2 response without greatly reducing the other response.
The effects of 1β-D-ribofuranosyl-1,2,4-triazole-3-carboxamide (Ribavirin) also supports the present theory. […] Yamada, Y. et al., Action of the Active Metabolites of Tiazofurin and Ribavirin on Purified IMP Dehydrogenase, Biochem. 27:2193-2196 (1988). Ribavirin proceeds under a different mechanism than Tiazofurin in inhibiting IMP DH, however, acting on a different site on the enzyme molecule. Ribavirin is converted to its active metabolite, ribavirin-monophosphate (RMP), which inhibits the enzyme at the IMP-XMP site of IMP DH. As with Tiazofurin, the affinity of Ribavirin's active form to the enzyme is higher than that of the natural metabolite.
In another aspect of the invention, an abnormality reflected in increased response in one group of cytokines is treated by administering a nucleoside or other compound that increases response in another group of cytokines. Thus, for example, a common rapid onset type of allergy results in an abnormally elevated Th2 response.
It is also contemplated that an abnormality reflected in increased response in one group of cytokines can be treated by administering a nucleoside that increases response in another group of cytokines.

[1] = test system: inosine monophosphate dehydrogenase (IMP DH); settings: cited from earlier work
guanine nucleotide pools = settings: cited from earlier work
tumors = settings: in vivo; cited from earlier work
[2] = approximately 600 to 1000 mg/day

## NC(=O)c1csc([C@@H]2O[C@H](CO)[C@@H](O)[C@H]2O)n1 [Tiazofurin, 2-β-D-ribofuranosylthiazole-4-carboxamide]
Th1 and Th2 responses; Tiazofurin initial doses about 4,400 mg/m^2, consolidation doses about 1100 to 3300 mg/m^2
  Th1 and Th2 responses: greatly reduced
[1]
  IMP DH activity: selectively block IMP DH activity
Guanine nucleotide pools
  guanine nucleotide pools: deplete guanine nucleotide pools
tumors
  tumor remission: forces various tumors into remission

## NC(=O)c1ncn([C@@H]2O[C@H](CO)[C@@H](O)[C@H]2O)n1 [Ribavirin, 1β-D-ribofuranosyl-1,2,4-triazole-3-carboxamide]
Th1 and Th2 responses; [2]
  Th1 response: promotes a Th1 response; also recorded: Th1 response is induced
  Th2 response: suppresses a Th2 response; also recorded: Th2 response is suppressed
Th1 and Th2 responses; low dosages of about 500 mg/day to about 1,000 mg/day
  Th1 response: increases Th1 response
Th1 and Th2 responses; relatively high doses, approximately 2200 mg/m^2 or about 1200-1500 mg/day for an adult
  Th1 and Th2 responses: both Th1 and Th2 responses are inhibited
[1]
  IMP DH activity: inhibit IMP DH
